Data: patent US9974761B2, “Medications for deposition on biological surfaces” (The Procter & Gamble Company, priority 2014, dated 2018)

Molecular target: T1, human TRPM8
T1 construct: Receptor Activity TRPM8; Receptor Activity TRPM8; other: test compound at 0.001%; relative to WS5 control (30 microMolar); HEK 293 cells; other: test compound at 0.004%; other: test compound at 5.2E−5%; relative to WS5 control
Experiment: TRPM8 Protocol-FLIPR Assay (intracellular Ca2+)
Type: cell-based
Details: for TRPM8 Time Course Activity 5 min % of WS5 / TRPM8 Time Course Activity 10 min % of WS5: dose 12.2 nM, vs 30 uM WS-5
Description: To determine whether TRPM8 is activated, the intracellular calcium ion (Ca^2+) level was measured from transfected cells with the TRPM8 receptor sequence (SEQ ID NO: 3). HEK-293 (human embryonic kidney) cells stably transfected with human TRPM8 were grown in 15 ml growth medium (high glucose DMEM (Dulbecco's Modification of Eagle's Medium) supplemented with 10% FBS (fetal bovine serum), 100 ug/ml penicillin/streptomycin, 5 μg/ml blasticindin, and 100 μg/ml zeocin) in a 75 cm^2 flask for 3 days at 37° C. in a mammalian cell culture incubator set at 5% CO2 Cells were detached with addition of 2 ml of trypsin-EDTA buffer (GIBCO® 25200, Invitrogen, Grand Island, N.Y.) for about 2-3 min. Trypsin was inactivated by addition of 8 ml growth medium. Cells were transferred to a 50 ml tube and centrifuged at 850 rpm for 3 minutes to remove medium. After centrifugation, a pellet of cells was formed in the bottom of the tube separating them from the supernatant solution. The supernatant was discarded and the cell pellet was suspended in 1 ml of fresh growth medium to which 5 μl (12.5 μg) of Fluo-4 AM (Molecular Probes, Inc., Eugene, Oreg.) calcium indicator was added and incubated for 30 min with gentle shaking. Fluo-4 AM is a fluorescent dye used for quantifying cellular Ca^2+ concentrations in the 100 nM to 1 microM range. At the end of 30 minutes, 45 ml of assay buffer (1× HBSS (Hank's Balanced Salt Solution), 20 mM HEPES (4-(2-Hydroxyethyl)-1-piperazineethanesulfonic acid)) was added to wash cells and the resulting mixture was then centrifuged at 850 rpm for 3 minutes to remove excess buffer and Fluo-4 AM calcium indicator.
The pelleted cells were re-suspended in 10 ml assay buffer and 90 μl aliquots (˜50,000 cells) per well delivered to a 96-well assay plate containing 10 μl of test compounds (1 mM in assay buffer, […]) or buffer control and incubated at room temperature for 30 minutes. After 30 minutes, a plate was placed into a fluorometric imaging plate reader (FLIPR384 from Molecular Devices, Sunnyvale, Calif.) and basal fluorescence recorded (excitation wave length 488 nm and emission wave length 510 nm). Then 20 μl of […] of TRPM8 agonist WS5 coolant in the assay buffer was added and fluorescence recorded. For determining the direct effect of test compounds on TRPM8, fluorescence was measured immediately after addition of each compound (TABLES 2 and 3). Additional discussion of the FLIPR method can be found in Smart et al., Characterization using FLIPR of human vanilloid VR1 receptor pharmacology, European Journal of Pharmacology 417, 51-58 (2001) and Liu et al., Development and validation of a platelet calcium flux assay using a fluorescent imaging plate reader, Analytical Biochemistry 357, 216-224 (2006).
TRPM8 activation was determined by measuring intracellular calcium ion (Ca^2+) level from transfected cells with the TRPM8 receptor gene, as described in EXAMPLE 1, the results of which are shown in TABLES 4 and 5.

## CC(C)[C@@H]1CC[C@@H](C)C[C@H]1C(=O)NCC(NC(=O)[C@@H](C)N)c1ccccc1 (single isomer, unassigned) [Compound 28 fraction 1]
3 min
  EC50: 1.48 nM
5 min
  TRPM8 Time Course Activity 5 min % of WS5: 103.8%
10 min
  TRPM8 Time Course Activity 10 min % of WS5: 115.5%

## CC(C)[C@@H]1CC[C@@H](C)C[C@H]1C(=O)NCC(NC(=O)[C@@H](C)N)c1ccccc1 (single isomer, unassigned) [Compound 28 fraction 2]
3 min
  EC50: 55.5 nM
5 min
  EC50: 45.7 nM
  TRPM8 Time Course Activity 5 min % of WS5: 65.7%
10 min
  EC50: 37.4 nM
  TRPM8 Time Course Activity 10 min % of WS5: 71.1%
